In one assay the target is T1, SphK1 (Homo sapiens, UniProt Q9NYA1).
T1 construct: commercial enzyme from BPS Bioscience; human given only for the docking structure 3VZB
Briefly: ADP-Glo kinase assay. In kind it is biochemical.

For a further assay, the target named is T2, SphK2 (Homo sapiens, UniProt Q9NRA0).
T2 construct: commercial enzyme from BPS Bioscience
T2 sequence (Q9NRA0 1-654): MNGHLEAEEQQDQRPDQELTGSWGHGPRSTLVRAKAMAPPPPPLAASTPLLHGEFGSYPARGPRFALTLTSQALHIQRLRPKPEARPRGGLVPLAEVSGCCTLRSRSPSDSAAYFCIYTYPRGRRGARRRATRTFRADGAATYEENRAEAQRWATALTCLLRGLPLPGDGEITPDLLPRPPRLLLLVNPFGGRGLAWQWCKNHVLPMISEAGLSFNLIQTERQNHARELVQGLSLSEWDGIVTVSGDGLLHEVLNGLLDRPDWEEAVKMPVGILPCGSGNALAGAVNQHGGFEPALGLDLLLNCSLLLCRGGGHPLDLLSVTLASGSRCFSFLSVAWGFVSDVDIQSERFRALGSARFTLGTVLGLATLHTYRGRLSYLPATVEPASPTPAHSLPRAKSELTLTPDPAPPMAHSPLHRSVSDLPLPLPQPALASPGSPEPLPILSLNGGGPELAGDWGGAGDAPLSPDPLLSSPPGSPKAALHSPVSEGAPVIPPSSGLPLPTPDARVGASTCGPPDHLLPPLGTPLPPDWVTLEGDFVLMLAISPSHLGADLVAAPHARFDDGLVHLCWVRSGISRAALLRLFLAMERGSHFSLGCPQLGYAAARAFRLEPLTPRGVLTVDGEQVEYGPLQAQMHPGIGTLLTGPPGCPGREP
Briefly: ADP-Glo kinase assay. The assay is classed as biochemical. The source says:
ADP-Glo kinase assay on SphK2
(In general: ADP-Glo turns the ADP formed in a reaction into a luminescent signal.)

Read-outs that look alike come from different tables or passages of the source. Some results are limits rather than exact numbers.

T1 sequence (Q9NYA1 whole entry): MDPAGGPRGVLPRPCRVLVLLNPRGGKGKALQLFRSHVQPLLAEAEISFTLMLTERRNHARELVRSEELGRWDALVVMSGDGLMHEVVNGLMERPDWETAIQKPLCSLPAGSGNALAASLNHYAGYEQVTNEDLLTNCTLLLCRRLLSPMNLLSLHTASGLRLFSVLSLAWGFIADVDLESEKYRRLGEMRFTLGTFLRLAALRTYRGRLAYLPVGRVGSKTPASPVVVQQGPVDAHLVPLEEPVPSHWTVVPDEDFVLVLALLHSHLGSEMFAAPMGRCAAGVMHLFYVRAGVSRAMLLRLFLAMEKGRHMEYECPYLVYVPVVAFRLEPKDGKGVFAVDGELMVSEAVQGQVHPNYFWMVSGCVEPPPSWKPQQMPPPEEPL

By IC50 is commonly meant the concentration needed to halve the response being measured. For `CCCCCCCCCCCCCC[C@@H]1OC[C@H](N)[C@@H]1O` [compound 1, pachastrissamine], the values for the IC50 against SphK1 and on SphK2 were 12 µM and 41.8 µM, respectively. The corresponding values for `CCCCCCCCCCCCCC[C@@H]1CC[C@H](N)[C@@H]1O` [4b, (1R,2S,5R)-2-Amino-5-tetradecylcyclopentan-1-ol] are 7.5 µM and 20.1 µM. For the compound `CCCCCCCCCCCC[C@@H]1CC[C@H](N)[C@@H]1O` [4a, (1R,2S,5R)-2-Amino-5-dodecylcyclopentan-1-ol], the values for the IC50 at SphK1 and on SphK2 were 58.2 µM and above 100 µM, respectively. As to `CCCCCCCCCCCCCCCC[C@@H]1CC[C@H](N)[C@@H]1O` [4c, (1R,2S,5R)-2-Amino-5-hexadecylcyclopentan-1-ol], the values for the IC50 against SphK1 and at SphK2 were 41.3 µM and above 100 µM, respectively.

`CCCCCCCCCCCCC/C=C/[C@@H](O)[C@H](CO)N(C)C` [N,N-dimethylsphingosine] gave an IC50 against SphK2 (1 µM sphingosine, 150 µM ATP, 5 mM MgCl2, pH 7.2, 1% DMSO, 1 h, room temperature) of 19.9 µM.

Values taken from publication PMC4344604, “Synthesis and Biological Evaluation of Carbocyclic Analogues of Pachastrissamine” (Marine Drugs, 2015).
